The target of one test is T1, CHK1 (Homo sapiens, UniProt O14757).
T1 sequence (O14757 1-476): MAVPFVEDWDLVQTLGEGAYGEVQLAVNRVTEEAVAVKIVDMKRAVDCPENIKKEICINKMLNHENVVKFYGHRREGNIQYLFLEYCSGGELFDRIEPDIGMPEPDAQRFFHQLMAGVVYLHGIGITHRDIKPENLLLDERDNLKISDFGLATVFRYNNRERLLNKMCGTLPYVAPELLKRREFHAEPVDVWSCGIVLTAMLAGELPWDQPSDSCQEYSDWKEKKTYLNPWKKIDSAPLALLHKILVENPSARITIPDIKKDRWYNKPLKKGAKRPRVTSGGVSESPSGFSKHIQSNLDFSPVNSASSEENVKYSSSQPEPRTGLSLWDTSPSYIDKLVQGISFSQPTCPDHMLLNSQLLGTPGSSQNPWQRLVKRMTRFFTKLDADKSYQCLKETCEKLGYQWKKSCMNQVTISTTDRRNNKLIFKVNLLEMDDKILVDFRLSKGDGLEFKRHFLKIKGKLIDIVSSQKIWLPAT
Description: CHK1 high-throughput screening. Format: biochemical. Particulars: read-out: % inhibition @ 20 μM, Table 4, repeated entries per example.

In test [1] the target is T2, unphosphorylated VEGF-R2Δ50 (FLVK) (Homo sapiens, UniProt P35968, DEL940-989/E990V).
T2 construct: VEGF-R2Δ50 contains residues 806-939 and 990-1171; made in house; host or cells: baculovirus/insect cells
T2 sequence (P35968 with tags, fused parts or gaps DEL940-989/E990V limits assumed): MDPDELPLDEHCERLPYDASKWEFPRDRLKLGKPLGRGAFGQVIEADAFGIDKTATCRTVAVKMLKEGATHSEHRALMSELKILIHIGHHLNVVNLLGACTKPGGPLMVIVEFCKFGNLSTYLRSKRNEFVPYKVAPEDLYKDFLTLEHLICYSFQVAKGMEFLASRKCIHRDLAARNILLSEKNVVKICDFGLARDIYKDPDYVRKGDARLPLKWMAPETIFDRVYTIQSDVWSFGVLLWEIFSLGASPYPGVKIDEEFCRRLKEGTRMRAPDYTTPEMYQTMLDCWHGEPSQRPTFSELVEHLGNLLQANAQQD
Description: VEGF-R2 coupled spectrophotometric assay, unphosphorylated enzyme (FLVK). In kind it is biochemical. In outline: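 Unphosphorylated VEGF-R2Δ50 (5 to 40 nM) with 20 mM poly(E4Y1), 3 mM ATP, 60 mM MgCl2, 2 mM MnCl2 in 200 mM Hepes pH 7.5. ADP production coupled via PK/LDH to NADH oxidation, read at 340 nm. Ki from activity at varying compound concentrations.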

Test [2] concerns lung cancer cells (line MV522). The experiment in a line: Cancer cell proliferation (MV522) assay. In kind it is cell-based. The method, then:
Cancer Cell Proliferation (MV522) Assay
The protocol for assessing cellular proliferation in cancer cells is similar to that used for assessments in HUVEC cells. Two thousand lung cancer cells (line MV522, acquired from American Tissue Cultural Collection) were seeded in growth media (RPMI1640 medium supplemented with 2 mM glutamine and 10% FBS). Cells are allowed to attach for 1 day prior to addition of test agents and/or vehicles. Cells are treated simultaneously with the same test agents used in the HUVEC assay. Cellular proliferation is quantified by MTT dye reduction assay 72 hours after exposure to test agents. The total length of the assay is 4 days vs. 5 for HUVEC cells because MV522 cells are not exposed to starvation medium.

For test [3], the system named is human umbilical vein endothelial cells (HUVEC). Description: HUVEC proliferation assay. Particulars: Homo sapiens, HUVEC. In kind it is cell-based. In outline:
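Readout was MTT dye reduction (A595) after 72 h of stimulation with VEGF at 6 ng/ml final. Compound, in 0.1% DMSO final, was added 1 h before VEGF to HUVEC starved 24 h in 1% FBS. % inhibition was scaled between VEGF-alone and unstimulated wells; IC50 was fitted from triplicate dose curves.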

Test [4] addresses T3, phosphorylated VEGF-R2Δ50 (FLVK-P) (Homo sapiens, UniProt P35968, DEL940-989/E990V).
T3 construct: VEGF-R2Δ50 contains residues 806-939 and 990-1171; made in house; host or cells: baculovirus/insect cells
Description: VEGF-R2 coupled spectrophotometric (FLVK-P) assay. Format: biochemical. The conditions noted are these: Table 1; spectrophotometric assay. In outline: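 Baculovirus-expressed human VEGF-R2Δ50 (residues 806-939/990-1171, E990V) was autophosphorylated with 3 mM ATP, 40 mM MgCl2 for 2 h at 4° C. ADP formation was coupled via PK/LDH to NADH oxidation, read at 340 nm, with 5.1 mM poly(E4Y1), 1 mM ATP, 25 mM MgCl2, Hepes pH 7.5. Ki came from activity across compound concentrations.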

Each structure is given as a SMILES string. pIC50, pKi: −log10 of the molar value. Where only a bound is given, the exact number is not on record here.

T3 sequence (P35968 with tags, fused parts or gaps DEL940-989/E990V limits assumed): as above

Broadly, the inhibition is the drop in the measured response relative to a control, in per cent. With `Nc1nc(Nc2ccc3c(c2)CCC3)sc1-c1nc(-c2cccc(NC(=O)c3ccccc3)c2)cs1` [A(43)], the inhibition at 20 µM at CHK1 is -3%.

In general, pKi refers to the Ki on a negative log10 scale, so that one unit is a factor of ten. Lower therefore signals a large Ki. Usually pIC50 stands for the IC50 on a negative log10 scale, so that one unit is a factor of ten. Read a high pIC50 as a low IC50. For the compound `CNc1nc(N)c(-c2nc(-c3cc(NC(=O)c4cccc(OC)c4)ccc3C)no2)s1` [B(17), N-(3-{5-[4-Amino-2-(3,4,5-methylamino)-thiazol-5-yl]-[1,2,4]oxadiazol-3-yl]-4-methyl-phenyl}-3-methoxy-benzamide], the pKi in test [1] (Table 3, some entries 'Slow binder') was 8.47. Besides, the pIC50 in test [2] (MV522, Table 3) is 5.89; in test [3] (Table 3) it was 7.20.

Turning to `Nc1nc(Nc2ccc3c(c2)OCO3)sc1-c1nc(-c2cccc(NC(=O)c3ccccc3)c2)cs1` [A(41), N-{3-[4′-Amino-2′-(benzo[1,3]dioxol-5-ylamino)-[2,5′]bithiazolyl-4-yl]-phenyl}-benzamide], the inhibition at 20 µM on CHK1 stood at 3.8%.

Regarding `COc1cc(Nc2nc(N)c(-c3nc(-c4cccc(NC(=O)c5ccccc5)c4)cs3)s2)cc(OC)c1OC` [D(24), N-{3-[4′-Amino-2′-(3,4,5-trimethoxy-phenylamino)-[2,5′]bithiazolyl-4-yl]-phenyl}-benzamide], the pKi is 8.70 in test [1] (Table 1) and 8.74 in test [4]. Also, the pIC50 in test [2] (MV522, Table 1) was less than 5.00; in test [3] (Table 1), 6.96.

Turning to `CSc1cccc(Nc2nc(N)c(-c3nc(-c4cccc(NC(=O)c5ccccc5)c4)cs3)s2)c1` [A(46), N-{3-[4′-Amino-2′-(3-methylsulfanyl-phenylamino)-[2,5′]bithiazolyl-4-yl]-phenyl}-benzamide], the inhibition at 20 µM at CHK1 amounted to 0.9%.

Consider `COc1cc(Nc2nc(N)c(-c3nc(-c4cccc(NC(=O)c5ncc(C)s5)c4)cs3)s2)cc(OC)c1OC` [D(42), 5-Methyl-thiazole-2-carboxylic acid {3-[4′-amino-2′-(3,4,5-trimethoxy-phenylamino)-[2,5′]bithiazolyl-4-yl]-phenyl}-amide], for which the pKi was 9.11 in test [1] (Table 1) and 9.47 in test [4]. For the same compound, the pIC50 in test [2] (MV522, Table 1) was less than 5.00; in test [3] (Table 1) it was 7.28.

Consider `COc1cc(Nc2nc(N)c(-c3nc(-c4cccc(NC(=O)OCc5ccccc5)c4)cs3)s2)cc(OC)c1OC` [D(12), {3-[4′-Amino-2′-(3,4,5-trimethoxy-phenylamino)-[2,5′]bithiazolyl-4-yl]-phenyl}-carbamic acid benzyl ester], for which the figures for the pKi in test [1] (Table 1) and in test [4] were 8.59 and 8.70, respectively. Besides, the pIC50 in test [2] (MV522, Table 1) was less than 5.00; in test [3] (Table 1) it was 6.80.

`COC(=O)c1cccc(Nc2nc(N)c(-c3nc(-c4cccc(NC(=O)c5ccccc5)c4)cs3)s2)c1` [A(39), 3-[4′-Amino-4-(3-benzoylaminophenyl)-[2,5′]bithiazolyl-2′-ylamino]-benzoic acid methyl ester]: on CHK1, the inhibition at 20 µM was found to be 2.2%.

With `COc1cc(Nc2nc(N)c(-c3nc(-c4cccc(NC(=O)c5cccc(Cl)c5)c4)cs3)s2)cc(OC)c1OC` [D(40), N-{3-[4′-Amino-2′-(3,4,5-trimethoxy-phenylamino)-[2,5′]bithiazolyl-4-yl]-phenyl}-3-chloro-benzamide], the pKi in test [1] (Table 1) was 8.85; in test [4] it was 8.96. Further, the pIC50 in test [2] (MV522, Table 1) was less than 5.00; in test [3] (Table 1), 7.41.

Regarding `CC(=O)c1ccc(Nc2nc(N)c(-c3nc(-c4cccc(NC(=O)c5ccccc5)c4)cs3)s2)cc1` [A(58), 4-(4′-Amino-4-(3-benzamidophenyl)-[2,5′]bithiazolyl-2′-ylamino)-acetophenone], the inhibition at 20 µM at CHK1 is -7.2%.

Take `COc1cc(Nc2nc(N)c(-c3nc(-c4cccc(NC(=O)c5ccc(Cl)s5)c4)cs3)s2)cc(OC)c1OC` [D(35), 5-Chloro-thiophene-2-carboxylic acid {3-[4′-amino-2′-(3,4,5-trimethoxy-phenylamino)-[2,5′]bithiazolyl-4-yl]-phenyl}-amide]: the pIC50 in test [2] (MV522, Table 1) is less than 5.00; in test [3] (Table 1) it was 7.38. In test [4], this compound showed a pKi of 8.74.

`COc1cc(C(=O)Nc2cccc(-c3csc(-c4sc(Nc5cc(OC)c(OC)c(OC)c5)nc4N)n3)c2)ccc1C` [D(32), N-{3-[4′-Amino-2′-(3,4,5-trimethoxy-phenylamino)-[2,5′]bithiazolyl-4-yl]-phenyl}-3-methoxy-4-methyl-benzamide]: the pIC50 is less than 5.00 in test [2] (MV522, Table 1) and 7.23 in test [3] (Table 1). Moreover, the pKi in test [4] is 8.41.

For the compound `COc1cc(Nc2nc(N)c(-c3nc(-c4cccc(NC(=O)OCc5ccccc5)c4)no3)s2)cc(OC)c1OC` [D(44), 3-[3-Benzyloxycarboxy-aminophenyl]-5-[2-[(3,4,5-trimethoxyphenyl)amino]-4-amino-5-thiazolyl]-1,2,4-oxadiazole], the pKi is 8.68 in test [1] (Table 1) and 8.27 in test [4]. The negative logarithm of the IC50 (pIC50) in test [2] (MV522, Table 1) was less than 5.00; in test [3] (Table 1), 6.43.

`COc1cc(Nc2nc(N)c(-c3nc(-c4cccc(NC(=O)c5cccc(C(F)(F)F)c5)c4)no3)s2)cc(OC)c1OC` [D(49), 3-[3-(3-Trifluoromethylbenzamido)phenyl]-5-[2-[(3,4,5-trimethoxyphenyl)amino]-4-amino-5-thiazolyl]-1,2,4-oxadiazole]: the negative-log IC50 (pIC50) is less than 5.00 in test [2] (MV522, Table 1) and 7.82 in test [3] (Table 1). This compound also gave a pKi in test [4] of 8.80.

`COc1cc(Nc2nc(N)c(-c3nc(-c4cccc(NC(=O)c5cccc(C)c5)c4)no3)s2)cc(OC)c1OC` [D(47), 3-[3-(3-Methylbenzamido)phenyl]-5-[2-[(3,4,5-trimethoxyphenyl)amino]-4-amino-5-thiazolyl]-1,2,4-oxadiazole]: the pKi in test [1] (Table 1) was 9.47; in test [4], 8.96. The negative-log IC50 (pIC50) was less than 5.00 in test [2] (MV522, Table 1) and 7.89 in test [3] (Table 1).

As to `COc1cc(Nc2nc(N)c(-c3nc(-c4cccc(NC(=O)c5ccc(Br)o5)c4)cs3)s2)cc(OC)c1OC` [D(37), 5-Bromo-furan-2-carboxylic acid {3-[4′-amino-2′-(3,4,5-trimethoxy-phenylamino)-[2,5′]bithiazolyl-4-yl]-phenyl}-amide], the pIC50 was less than 5.00 in test [2] (MV522, Table 1) and 6.82 in test [3] (Table 1). In addition, the pKi in test [4] is 8.47.

As for `COc1cc(Nc2nc(N)c(-c3nc(-c4cccc(NC(=O)c5cccc(C(C)C)c5)c4)cs3)s2)cc(OC)c1OC` [D(27), N-{3-[4′-Amino-2′-(3,4,5-trimethoxy-phenylamino)-[2,5′]bithiazolyl-4-yl]-phenyl}-3-isopropyl-benzamide], the pIC50 was less than 5.00 in test [2] (MV522, Table 1) and 7.09 in test [3] (Table 1). In test [4], this compound showed a pKi of 8.74.

Turning to `COc1ccc(Nc2nc(N)c(-c3nc(-c4cccc(NC(=O)c5ccccc5)c4)cs3)s2)cc1OC` [A(47), N-{3-[4′-Amino-2′-(3,4-dimethoxy-phenylamino)-[2,5′]bithiazolyl-4-yl]-phenyl}-benzamide], the pIC50 is less than 5.00 in test [2] (MV522, Table 1) and 6.59 in test [3] (Table 1). The pKi in test [4] was 8.10.

Consider `COc1cc(Nc2nc(N)c(-c3nc(-c4cccc(NC(=O)c5sc(C)nc5C)c4)cs3)s2)cc(OC)c1OC` [D(33), 2,4-Dimethyl-thiazole-5-carboxylic acid {3-[4′-amino-2′-(3,4,5-trimethoxy-phenylamino)-[2,5′]bithiazolyl-4-yl]-phenyl}-amide], for which the pKi in test [1] (Table 1) was 8.44; in test [4] it was 8.42. Besides, the pIC50 in test [2] (MV522, Table 1) was less than 5.00; in test [3] (Table 1) it was 6.92.

With `COc1cc(Nc2nc(N)c(-c3nc(-c4cccc(NS(C)(=O)=O)c4)cs3)s2)cc(OC)c1OC` [D(3), N-{3-[4′-Amino-2′-(3,4,5-trimethoxy-phenylamino)-[2,5′]bithiazolyl-4-yl]-phenyl}-methanesulfonamide], the pIC50 was less than 5.00 in test [2] (MV522, Table 1) and less than 6.15 in test [3] (Table 1). In test [4], this compound had a pKi of 7.20.

The values are drawn from patent US6620828B2, “Thiazole compounds and pharmaceutical compositions for inhibiting protein kinases and methods for their use” (Agouron Pharmaceuticals, Inc., priority 1999, dated 2003).
